# Measurements: ChEMBL document CHEMBL5634141 (Eur J Med Chem, 2023)
# Activity calls are given as the source filed them. No cut-off for these calls is given here.
# Key:
# [1] = test system: MIA PaCa-2; test: Induction of apoptosis in human MIA PaCa-2 cells assessed as necrotic cells at 300 nM incubated for 48 hrs by Annexin V-FITC staining based flow cytometry analysis (reference value: 1.25 %); assay type: functional
# [2] = Downregulation of KRAS G12C mutant expression in human NCI-H358 cells assessed as log2 of fold change at 200 nM incubated for 48 hrs by MS-based proteomic analysis; assay type: functional
# [3] = test system: NCI-H358; test: Synergistic antiproliferative activity against human NCI-H358 cells expressing KRAS G12C mutant assessed as combination index at 30 nM incubated for 72 hrs in presence of naporafenib by CCK-8 assay; assay type: functional
# [4] = test system: NCI-H358; test: Antiproliferative activity against human NCI-H358 cells expressing KRAS G12C mutant assessed as reduction of cell growth by measuring fold decrease in IC50 incubated for 72 hrs in presence of Linsitinib by CCK-8 assay; assay type: functional
# [5] = test system: NCI-H358; test: Antiproliferative activity against human NCI-H358 cells expressing KRAS G12C mutant assessed as relative cell viability at 30 nM incubated for 72 hrs in presence of infigratinib by CCK-8 assay; assay type: functional; conditions: read-out: Activity
# [6] = test system: von Hippel-Lindau disease tumor suppressor/GTPase KRas (Homo sapiens), P01116+P40337 [G12C]; test: PROTAC activity at VHL/KRAS G12C mutant in human MIA PaCa-2 cells assessed as induction of protein degradation at 300 nM incubated for 6 hrs by Western blotting analysis relative to control; assay type: cell-based
# [7] = test system: Calu-1; test: Antiproliferative activity against human Calu-1 cells expressing KRAS G12C mutant assessed as relative cell viability at 30 nM incubated for 72 hrs in presence of selumetinib by CCK-8 assay; assay type: functional; conditions: read-out: Activity
# [8] = test system: NCI-H358; test: Antiproliferative activity against human NCI-H358 cells expressing KRAS G12C mutant assessed as relative cell viability at 30 nM incubated for 72 hrs in presence of naporafenib by CCK-8 assay; assay type: functional; conditions: read-out: Activity
# [9] = test system: NCI-H358; test: Synergistic antiproliferative activity against human NCI-H358 cells expressing KRAS G12C mutant assessed as combination index at 30 nM incubated for 72 hrs in presence of MK-2206 by CCK-8 assay; assay type: functional
# [10] = test system: von Hippel-Lindau disease tumor suppressor/GTPase KRas (Homo sapiens), P01116+P40337 [G12C]; test: PROTAC activity at VHL/KRAS G12C mutant in human MIA PaCa-2 cells assessed as induction of protein degradation at 300 nM incubated for 24 hrs by Western blotting analysis relative to control; assay type: cell-based
# [11] = test system: von Hippel-Lindau disease tumor suppressor/GTPase KRas (Homo sapiens), P01116+P40337 [G12C]; test: PROTAC activity at VHL/KRAS G12C mutant in human NCI-H358 cells assessed as induction of protein degradation at 300 nM incubated for 6 hrs by Western blotting analysis relative to control; assay type: cell-based
# [12] = test system: von Hippel-Lindau disease tumor suppressor/GTPase KRas (Homo sapiens), P01116+P40337 [G12C]; test: PROTAC activity at VHL/KRAS G12C mutant in human NCI-H358 cells assessed as induction of protein degradation at 100 nM incubated for 48 hrs followed by compound washout by Western blotting analysis; assay type: cell-based
# [13] = Toxicity in ICR mouse assessed as side effects at 30 mg/kg, ip measured after 24 hrs; assay type: organism-based; conditions: in vivo
# [14] = test system: NCI-H358; test: Induction of cell cycle arrest in human NCI-H358 cells assessed as accumulation of cells at G2/M phase incubated for 48 hrs by propidium iodide staining based flow cytometry analysis; assay type: functional; conditions: dose 30-300 nM
# [15] = test system: von Hippel-Lindau disease tumor suppressor/GTPase KRas (Homo sapiens), P01116+P40337 [G12C]; test: PROTAC activity at VHL/KRAS G12C mutant in human NCI-H358 cells assessed as induction of protein degradation at 100 nM incubated for 48 hrs followed by compound washout and measured after 48 hrs by Western blotting analysis; assay type: cell-based
# [16] = test system: NCI-H23; test: Antiproliferative activity against human NCI-H23 cells expressing KRAS G12C mutant assessed as relative cell viability at 30 nM incubated for 72 hrs in presence of crizotinib by CCK-8 assay; assay type: functional; conditions: read-out: Activity
# [17] = test system: NCI-H23; test: Antiproliferative activity against human NCI-H23 cells expressing KRAS G12C mutant assessed as relative cell viability at 30 nM incubated for 72 hrs by CCK-8 assay; assay type: functional; conditions: read-out: Activity
# [18] = AUC (0 to t) in ICR mouse at 30 mg/kg, ip measured after 24 hrs by LC-MS/MS analysis; assay type: ADME, organism-based; conditions: in vivo
# [19] = test system: von Hippel-Lindau disease tumor suppressor/GTPase KRas (Homo sapiens), P01116+P40337 [G12C]; test: PROTAC activity at VHL/KRAS G12C mutant in human MIA PaCa-2 cells assessed as induction of protein degradation at 100 nM incubated for 48 hrs followed by compound washout and measured after 48 hrs by Western blotting analysis; assay type: cell-based
# [20] = Volume of distribution at steady state in ICR mouse at 2 mg/kg, iv measured after 24 hrs by LC-MS/MS analysis; assay type: ADME, organism-based; conditions: in vivo
# [21] = test system: NCI-H358; test: Inhibition of colony formation in human NCI-H358 cells expressing KRAS G12C mutant assessed as reduction in cell number at 30 nM incubated for 14 days in presence of AZD4573 by crystal violet staining based analysis; assay type: functional; conditions: time 14.0 day
# [22] = test system: von Hippel-Lindau disease tumor suppressor/GTPase KRas (Homo sapiens), P01116+P40337 [G12C]; test: PROTAC activity at VHL/KRAS G12C mutant in human MIA PaCa-2 cells assessed as induction of protein degradation in presence of AMG510 by Western blotting analysis; assay type: cell-based
# [23] = test system: von Hippel-Lindau disease tumor suppressor/GTPase KRas (Homo sapiens), P01116+P40337 [G12C]; test: PROTAC activity at VHL/KRAS G12C mutant in human NCI-H358 cells assessed as induction of protein degradation incubated for 72 hrs by Western blot analysis; assay type: cell-based
# [24] = test system: MIA PaCa-2; test: Antiproliferative activity against human MIA PaCa-2 cells expressing KRAS G12C mutant assessed as inhibition of cell growth at 100 nM incubated for 8 days by CCK-8 assay; assay type: functional, cell-based; conditions: time 8.0 day
# [25] = test system: MIA PaCa-2; test: Antitumor activity against human MIA PaCa-2 cells xenografted in BALB/c nude mouse assessed as increase in percentage of cleaved-caspase 3-positive cells at 10 to 30 mg/kg, ip administered for 16 days by immunohistochemical staining analysis; assay type: functional, organism-based; conditions: dose 10-30 mg/kg, time 16.0 day
# [26] = AUC (0 to t) in ICR mouse at 2 mg/kg, iv measured after 24 hrs by LC-MS/MS analysis; assay type: ADME, organism-based; conditions: in vivo
# [27] = test system: MIA PaCa-2; test: Antiproliferative activity against human MIA PaCa-2 cells expressing KRAS G12C mutant assessed as relative cell viability at 30 nM incubated for 72 hrs in presence of naporafenib by CCK-8 assay; assay type: functional; conditions: read-out: Activity
# [28] = test system: MIA PaCa-2; test: Induction of apoptosis in human MIA PaCa-2 cells assessed as viable cells at 300 nM incubated for 48 hrs by Annexin V-FITC staining based flow cytometry analysis (reference value: 91.5 %); assay type: functional; conditions: read-out: Activity
# [29] = test system: von Hippel-Lindau disease tumor suppressor/GTPase KRas (Homo sapiens), P01116+P40337 [G12C]; test: PROTACactivity at VHL/KRAS G12C mutant in human NCI-H358 cells assessed as induction of protein degradation by measuring maximal efficacy incubated for 72 hrs by Western blot analysis relative to control; assay type: cell-based
# [30] = test system: NCI-H358; test: Induction of apoptosis in human NCI-H358 cells assessed as viable cells at 30 nM incubated for 48 hrs by Annexin V-FITC staining based flow cytometry analysis (reference value: 91.6 %); assay type: functional; conditions: read-out: Activity
# [31] = test system: NCI-H23; test: Antiproliferative activity against human NCI-H23 cells expressing KRAS G12C mutant assessed as relative cell viability at 30 nM incubated for 72 hrs in presence of selumetinib by CCK-8 assay; assay type: functional; conditions: read-out: Activity
# [32] = Cmax in ICR mouse at 2 mg/kg, iv measured after 24 hrs by LC-MS/MS analysis; assay type: ADME, organism-based; conditions: in vivo
# [33] = Tmax in ICR mouse at 30 mg/kg, ip measured after 24 hrs by LC-MS/MS analysis; assay type: ADME, organism-based; conditions: in vivo
smiles,measurement,setting,value
C=CC(=O)N1CCN(c2nc(=O)n(-c3c(C)ccnc3C(C)C)c3nc(-c4c(F)cccc4OCC4CCN(CCCC(=O)N[C@H](C(=O)N5C[C@H](O)C[C@H]5C(=O)NCc5ccc(-c6scnc6C)cc5)C(C)(C)C)CC4)c(F)cc23)[C@@H](C)C1,Activity,[1],4.08%
same,log2FC,[2],>1
same,CI,[3],<1
same,fold change (FC),[4],~4
same,viability at 0.03 µM,[5],0.38%
same,Activity,[6],50%
same,viability at 0.03 µM,[7],0.13%
same,viability at 0.03 µM,[8],0.36%
same,CI,[9],<1
same,Activity,[10],100%
same,Activity,[11],50%
same,Activity,[12],Active
same,Activity,[13],Non-Toxic
same,Activity,[14],Dose-Dependent Effect
same,Activity,[15],inactive
same,viability at 0.03 µM,[16],0.33%
same,viability at 0.03 µM,[17],0.85%
same,AUC(0-t) at 24 h,[18],21000 ng·h/mL
same,Activity,[19],inactive
same,Vdss,[20],2 L/kg
same,inhibition,[21],Active
same,Activity,[22],inactive
same,Activity,[23],Dose-Dependent Effect
same,Activity,[24],Active
same,Activity,[25],Active
same,AUC(0-t) at 24 h,[26],399 ng·h/mL
same,viability at 0.03 µM,[27],0.27%
same,viability at 0.3 µM,[28],66.4%
same,Emax,[29],> 95%
same,viability at 0.03 µM,[30],89.4%
same,viability at 0.03 µM,[31],0.24%
same,Cmax,[32],1170 ng/mL
same,Tmax,[33],1.17 h
